Earlier results, collected in PubChem BioAssay AID1259409 (Chemical Carcinogenesis Research Information System (CCRIS), 2018).

Tested on: rodent chemically induced tumor inhibition, incidence and multiplicity
Assay: CCRIS tumor inhibitor studies
Conditions: Carcinogen: N-METHYL-N-NITROSOUREA, 684-93-5, Route [Inhibitor]: ORAL, Promoter: NONE USED

In the case of `CC1=C(/C=C/C(C)=C/C=C/C(C)=C/C(=O)NCCO)C(C)(C)CCC1`, the “tumour outcome (control, treated, inhibition, significance)” value (Dose [Inhibitor]: 2 MMOL/KG DIET DAILY STARTING 12 D AFTER CARCINOGEN TREATMENT THROUGH ABOUT 8 MO AFTER CARCINOGEN DOSE (STUDY DURATION:, Species: RAT, Strain/Sex: F344/MALE, Target Tissue: Type of Lesion: COLON: ADENOMA, Dose [Carcinogen]: 2.5 MG 1/WK FOR 2 WK) is listed as 16/39 (41%), 12/30 (40%), 5%, not significant, the “tumour outcome (control, treated, inhibition, significance)” value (Dose [Inhibitor]: 343 MG/KG DIET DAILY STARTING 1 WK AFTER LAST CARCINOGEN TREATMENT AND CONTINUING FOR 6 MO (STUDY DURATION: 9 MO), Species: HAMSTER, Strain/Sex: SYRIAN/MALE, Target Tissue: Type of Lesion: TRACHEA: BENIGN EPITHELIAL NEOPLASM, Dose [Carcinogen]: 0.5% IN 1 ML PHOSPHATE-BUFFERED SALINE 1/WK FOR 12 WK) is listed as 6/63 (10%), 6/62 (10%), 0%, not significant and the “tumour outcome (control, treated, inhibition, significance)” value (Dose [Inhibitor]: 343 MG/KG DIET DAILY STARTING 1 WK AFTER LAST CARCINOGEN TREATMENT AND CONTINUING FOR 6 MO (STUDY DURATION: 9 MO), Species: HAMSTER, Strain/Sex: SYRIAN/MALE, Target Tissue: Type of Lesion: TRACHEA: CARCINOMA, Dose [Carcinogen]: 0.5% IN 1 ML PHOSPHATE-BUFFERED SALINE 1/WK FOR 12 WK) is listed as 4/63 (6%), 11/62 (18%), -200%, not significant. For the same molecule, the “tumour outcome (control, treated, inhibition, significance)” value (Dose [Inhibitor]: 343 MG/KG DIET DAILY STARTING 1 WK AFTER LAST CARCINOGEN TREATMENT AND CONTINUING FOR 6 MO (STUDY DURATION: 9 MO), Species: HAMSTER, Strain/Sex: SYRIAN/MALE, Target Tissue: Type of Lesion: TRACHEA: EPITHELIAL NEOPLASM, Dose [Carcinogen]: 0.5% IN 1 ML PHOSPHATE-BUFFERED SALINE 1/WK FOR 12 WK) was 10/63 (16%), 17/62 (27%), -69%, not significant, the “tumour outcome (control, treated, inhibition, significance)” value (Dose [Inhibitor]: 343 MG/KG IN DIET DAILY FOR 6 MO STARTING 1 WK AFTER FINAL CARCINOGEN DOSE (STUDY DURATION: 9 MO), Species: HAMSTER, Strain/Sex: SYRIAN/MALE, Target Tissue: Type of Lesion: TRACHEA: BENIGN EPITHELIAL NEOPLASM, Dose [Carcinogen]: 0.5% SOLUTION FOR 5 SECOND EXPOSURE 1/WK FOR 12 WK) was 6/63 (10%), 6/62 (10%), 0%, not significant and the “tumour outcome (control, treated, inhibition, significance)” value (Dose [Inhibitor]: 343 MG/KG IN DIET DAILY FOR 6 MO STARTING 1 WK AFTER FINAL CARCINOGEN DOSE (STUDY DURATION: 9 MO), Species: HAMSTER, Strain/Sex: SYRIAN/MALE, Target Tissue: Type of Lesion: TRACHEA: CARCINOMA, Dose [Carcinogen]: 0.5% SOLUTION FOR 5 SECOND EXPOSURE 1/WK FOR 12 WK) was 4/63 (6%), 11/62 (18%), -200%, not significant. For the same molecule, the “tumour outcome (control, treated, inhibition, significance)” value (Dose [Inhibitor]: 343 MG/KG IN DIET DAILY FOR 6 MO STARTING 1 WK AFTER FINAL CARCINOGEN DOSE (STUDY DURATION: 9 MO), Species: HAMSTER, Strain/Sex: SYRIAN/MALE, Target Tissue: Type of Lesion: TRACHEA: EPITHELIAL NEOPLASM, Dose [Carcinogen]: 0.5% SOLUTION FOR 5 SECOND EXPOSURE 1/WK FOR 12 WK) was 10/63 (16%), 17/62 (27%), -69%, not significant, the “tumour outcome (control, treated, inhibition, significance)” value (Dose [Inhibitor]: 686 MG/KG DIET DAILY FOR 24 WK STARTING 5 D AFTER LAST DOSE OF CARCINOGEN (STUDY DURATION: 32 WK), Species: RAT, Strain/Sex: F344/MALE, Target Tissue: Type of Lesion: COLON: SARCOMA, Dose [Carcinogen]: 0.5 MG 2/WK FOR 8 WK) was 5/40 (13%), 1/40 (3%), 77%, not calculated and the “tumour outcome (control, treated, inhibition, significance)” value (Dose [Inhibitor]: 686 MG/KG DIET DAILY FOR 24 WK STARTING 5 D AFTER LAST DOSE OF CARCINOGEN (STUDY DURATION: 32 WK), Species: RAT, Strain/Sex: F344/MALE, Target Tissue: Type of Lesion: COLON: TUMOR, Dose [Carcinogen]: 0.5 MG 2/WK FOR 8 WK) was 60%, 68%, -13%, not significant. For the same molecule, the “tumour outcome (control, treated, inhibition, significance)” value (Dose [Inhibitor]: 686 MG/KG DIET DAILY FOR 38 WK STARTING 5 D AFTER LAST DOSE OF CARCINOGEN (STUDY DURATION: 44 WK), Species: RAT, Strain/Sex: F344/MALE, Target Tissue: Type of Lesion: COLON: MESOTHELIOMA, Dose [Carcinogen]: 0.5 MG, 2/WK FOR 6 WK STARTING 6 WK PRIOR TO AGENT TREATMENT) was 1/50 (2%), 2/49 (1%), 50%, not calculated, the “tumour outcome (control, treated, inhibition, significance)” value (Dose [Inhibitor]: 686 MG/KG DIET DAILY FOR 38 WK STARTING 5 D AFTER LAST DOSE OF CARCINOGEN (STUDY DURATION: 44 WK), Species: RAT, Strain/Sex: F344/MALE, Target Tissue: Type of Lesion: COLON: TUMOR, Dose [Carcinogen]: 0.5 MG 2/WK FOR 6 WK) was 62%, 61%, 2%, not significant and the “tumour outcome (control, treated, inhibition, significance)” value (Dose [Inhibitor]: 686 MG/KG DIET DAILY FOR 48 WK STARTING 5 D AFTER LAST DOSE OF CARCINOGEN (STUDY DURATION: 52 WK), Species: RAT, Strain/Sex: F344/MALE, Target Tissue: Type of Lesion: COLON: TUMOR, Dose [Carcinogen]: 0.5 MG 2/WK FOR 4 WK) was 31%, 27%, 13%, not significant.
